Counter-ions that a name gives are not always drawn.

This assay concerns LPS-induced TNF-α release in peripheral blood mononuclear cells (PBMCs). Briefly: In vitro determination of PDE4 inhibitory activity in the PBMCs assay (LPS-induced TNF-α release). The class given is cell-based, human. To be noted: PBMC; human PBMCs, LPS 3 ng/ml, 18 hours, TNF-α by ELISA; read-out: PDE4 inhibition (IC50, 50% inhibition of LPS-induced TNF-α release). The method, boiled down:
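Cryopreserved human PBMCs (10^5 cells/well) pre-incubated 30 min with compound (10^−12 to 10^−6 M or 10^−3 to 10^−7 M), then stimulated with LPS 3 ng/ml for 18 h at 37 °C. TNF-α in medium by ELISA; IC50 as mean ± 95% confidence limits.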
For `CN(C)S(=O)(=O)c1cccc(S(=O)(=O)N2CCCC[C@H]2C(=O)O[C@@H](Cc2c(Cl)c[n+]([O-])cc2Cl)c2ccc(OC(F)F)c(OCC3CC3)c2)c1` [Compound 113, 3,5-dichloro-4-((S)-2-(3-(cyclopropylmethoxy)-4-(difluoromethoxy)phenyl)-2-((S)-1-(3-(N,N-dimethylsulfamoyl)phenylsulfonyl)piperidine-2-carbonyloxy)ethyl)pyridine 1-oxide], the IC50 was below 0.1 nM. In the case of `CN(C)C(=O)c1cccc(S(=O)(=O)N2CCSCC2C(=O)O[C@@H](Cc2c(Cl)c[n+]([O-])cc2Cl)c2ccc(OC(F)F)c(OCC3CC3)c2)c1` (stereo partly drawn) [Compound 80, 3,5-dichloro-4-((2S)-2-(3-(cyclopropylmethoxy)-4-(difluoromethoxy)phenyl)-2-(4-(3-(dimethylcarbamoyl)phenylsulfonyl)thiomorpholine-3-carbonyloxy)ethyl)pyridine 1-oxide] it was 0.1 to 1 nM.

As to `Nc1ccc(S(=O)(=O)N2CCC[C@H]2C(=O)O[C@@H](Cc2c(Cl)c[n+]([O-])cc2Cl)c2ccc(OC(F)F)c(OCC3CC3)c2)cc1` [Compound 136, 4-((S)-2-((S)-1-(4-aminophenylsulfonyl)pyrrolidine-2-carbonyloxy)-2-(3-(cyclopropylmethoxy)-4-(difluoromethoxy)phenyl)ethyl)-3,5-dichloropyridine 1-oxide], the IC50 is 0.1 to 1 nM.

Turning to `Cn1ccnc1S(=O)(=O)N1CCS[C@H]1C(=O)O[C@@H](Cc1c(Cl)cncc1Cl)c1ccc(OC(F)F)c(OCC2CC2)c1` [Compound 243, (S)-((S)-1-(3-(cyclopropylmethoxy)-4-(difluoromethoxy)phenyl)-2-(3,5-dichloropyridin-4-yl)ethyl) 3-(1-methyl-1H-imidazol-2-ylsulfonyl)thiazolidine-2-carboxylate], the IC50 lay within 0.1 to 1 nM. With `CS(=O)(=O)N(CCN1CCOCC1)c1ccc(S(=O)(=O)N2CCSC2C(=O)O[C@@H](Cc2c(Cl)c[n+]([O-])cc2Cl)c2ccc(OC(F)F)c(OCC3CC3)c2)cc1` (stereo partly drawn) [Compound 143, 3,5-dichloro-4-((2S)-2-(3-(cyclopropylmethoxy)-4-(difluoromethoxy)phenyl)-2-(3-(4-(N-(2-morpholinoethyl)methylsulfonamido)phenylsulfonyl)thiazolidine-2-carbonyloxy)ethyl)pyridine 1-oxide formate] the figure was 0.1 to 1 nM; with `COc1ccc(S(=O)(=O)N2CCS[C@H]2C(=O)O[C@@H](Cc2c(Cl)c[n+]([O-])cc2Cl)c2ccc(OC(F)F)c(OCC3CC3)c2)cc1` [Compound 110, 3,5-dichloro-4-((S)-2-(3-(cyclopropylmethoxy)-4-(difluoromethoxy)phenyl)-2-((S)-3-(4-methoxyphenylsulfonyl)thiazolidine-2-carbonyloxy)ethyl)pyridine 1-oxide], 0.1 to 1 nM.

In the case of `CN(C)C(=O)c1cccc(S(=O)(=O)N2CSC[C@H]2C(=O)O[C@@H](Cc2c(Cl)c[n+]([O-])cc2Cl)c2ccc(OC(F)F)c(OCC3CC3)c2)c1` [Compound 84, 3,5-dichloro-4-((S)-2-(3-(cyclopropylmethoxy)-4-(difluoromethoxy)phenyl)-2-((R)-3-(3-(dimethylcarbamoyl)phenylsulfonyl)thiazolidine-4-carbonyloxy)ethyl)pyridine 1-oxide], the IC50 is below 0.1 nM.

As for `Cc1nc(C)c(S(=O)(=O)N2CCS[C@H]2C(=O)O[C@@H](Cc2c(Cl)c[n+]([O-])cc2Cl)c2ccc(OC(F)F)c(OCC3CC3)c2)s1` [Compound 107, 3,5-dichloro-4-((S)-2-(3-(cyclopropylmethoxy)-4-(difluoromethoxy)phenyl)-2-((S)-3-(2,4-dimethylthiazol-5-ylsulfonyl)thiazolidine-2-carbonyloxy)ethyl)pyridine 1-oxide], the IC50 is below 0.1 nM. With `N#Cc1cc(S(=O)(=O)N2CCS[C@H]2C(=O)O[C@@H](Cc2c(Cl)c[n+]([O-])cc2Cl)c2ccc(OC(F)F)c(OCC3CC3)c2)ccc1F` [Compound 209, 3,5-dichloro-4-((S)-2-((S)-3-(3-cyano-4-fluorophenylsulfonyl)thiazolidine-2-carbonyloxy)-2-(3-(cyclopropylmethoxy)-4-(difluoromethoxy)phenyl)ethyl)pyridine 1-oxide] the figure was 0.1 to 1 nM; with `CN(C)Cc1ccc(C(=O)N2CCSC2C(=O)O[C@@H](Cc2c(Cl)c[n+]([O-])cc2Cl)c2ccc(OC(F)F)c(OCC3CC3)c2)s1` (stereo partly drawn) [Compound 51, 3,5-dichloro-4-((2S)-2-(3-(cyclopropylmethoxy)-4-(difluoromethoxy)phenyl)-2-(3-(5-((dimethylamino)methyl)thiophene-2-carbonyl)thiazolidine-2-carbonyloxy)ethyl)pyridine 1-oxide formate], 0.1 to 1 nM; with `O=C(O[C@@H](Cc1c(Cl)c[n+]([O-])cc1Cl)c1ccc(OC(F)F)c(OCC2CC2)c1)C1SCCN1S(=O)(=O)CC1CC1` (stereo partly drawn) [Compound 65, 3,5-dichloro-4-((2S)-2-(3-(cyclopropylmethoxy)-4-(difluoromethoxy)phenyl)-2-(3-(cyclopropylmethylsulfonyl)thiazolidine-2-carbonyloxy)ethyl)pyridine 1-oxide], 0.1 to 1 nM. In the case of `O=C(O[C@@H](Cc1c(Cl)c[n+]([O-])cc1Cl)c1ccc(OC(F)F)c(OCC2CC2)c1)[C@@H]1CCCN1S(=O)(=O)c1ccccc1` [Compound 86, 3,5-dichloro-4-((S)-2-(3-(cyclopropylmethoxy)-4-(difluoromethoxy)phenyl)-2-((S)-1-(phenylsulfonyl)pyrrolidine-2-carbonyloxy)ethyl)pyridine 1-oxide] it was 0.1 to 1 nM; in that of `O=C(OCCN1CCOCC1)c1cccc(S(=O)(=O)N2CCSC2C(=O)O[C@@H](Cc2c(Cl)c[n+]([O-])cc2Cl)c2ccc(OC(F)F)c(OCC3CC3)c2)c1` (single isomer, unassigned) [Compound 133, 3,5-dichloro-4-((S)-2-(3-(cyclopropylmethoxy)-4-(difluoromethoxy)phenyl)-2-((S)-3-(3-((2-morpholinoethoxy)carbonyl)phenylsulfonyl)thiazolidine-2-carbonyloxy)ethyl)pyridine 1-oxide or 3,5-dichloro-4-((S)-2-(3-(cyclopropylmethoxy)-4-(difluoromethoxy)phenyl)-2-((R)-3-(3-((2-morpholinoethoxy)carbonyl)phenylsulfonyl)thiazolidine-2-carbonyloxy)ethyl)pyridine 1-oxide], below 0.1 nM. In the case of `Cc1cc(F)ccc1S(=O)(=O)N1CCSC1C(=O)O[C@@H](Cc1c(Cl)c[n+]([O-])cc1Cl)c1ccc(OC(F)F)c(OCC2CC2)c1` (stereo partly drawn) [Compound 69, 3,5-dichloro-4-((2S)-2-(3-(cyclopropylmethoxy)-4-(difluoromethoxy)phenyl)-2-(3-(4-fluoro-2-methylphenylsulfonyl)thiazolidine-2-carbonyloxy)ethyl)pyridine 1-oxide], the IC50 is 0.1 to 1 nM.

`CN(C)C(=O)c1cccc(S(=O)(=O)N2CCC[C@H]2C(=O)O[C@@H](Cc2c(Cl)c[n+]([O-])cc2Cl)c2ccc(OC(F)F)c(OCC3CC3)c2)c1` [Compound 54, 3,5-dichloro-4-((S)-2-(3-(cyclopropylmethoxy)-4-(difluoromethoxy)phenyl)-2-((S)-1-(3-(dimethylcarbamoyl)phenylsulfonyl)pyrrolidine-2-carbonyloxy)ethyl)pyridine 1-oxide]: the IC50 is below 0.1 nM. Take `COc1ccc(S(=O)(=O)N2CCSC2C(=O)O[C@@H](Cc2c(Cl)c[n+]([O-])cc2Cl)c2ccc(OC(F)F)c(OCC3CC3)c2)cc1C(=O)N1CCOCC1` (stereo partly drawn) [Compound 128, 3,5-dichloro-4-((2S)-2-(3-(cyclopropylmethoxy)-4-(difluoromethoxy)phenyl)-2-(3-(4-methoxy-3-(morpholine-4-carbonyl)phenylsulfonyl)thiazolidine-2-carbonyloxy)ethyl)pyridine 1-oxide]: the IC50 was below 0.1 nM.

For `CN(C)C(=O)c1cccc(S(=O)(=O)N2CCOC(C(=O)O[C@@H](Cc3c(Cl)c[n+]([O-])cc3Cl)c3ccc(OC(F)F)c(OCC4CC4)c3)C2)c1` (stereo partly drawn) [Compound 78, 3,5-dichloro-4-((2S)-2-(3-(cyclopropylmethoxy)-4-(difluoromethoxy)phenyl)-2-(4-(3-(dimethylcarbamoyl)phenylsulfonyl)morpholine-2-carbonyloxy)ethyl)pyridine 1-oxide], the IC50 fell in the range of 0.1 to 1 nM. Turning to `Cn1ccnc1S(=O)(=O)N1CCSC1C(=O)O[C@@H](Cc1c(Cl)c[n+]([O-])cc1Cl)c1ccc(OC(F)F)c(OCC2CC2)c1` (stereo partly drawn) [Compound 64, 3,5-dichloro-4-((2S)-2-(3-(cyclopropylmethoxy)-4-(difluoromethoxy)phenyl)-2-(3-(1-methyl-1H-imidazol-2-ylsulfonyl)thiazolidine-2-carbonyloxy)ethyl)pyridine 1-oxide], the IC50 was below 0.1 nM. With `COc1ccc([C@H](Cc2c(Cl)c[n+]([O-])cc2Cl)OC(=O)[C@@H]2CCCN2S(=O)(=O)c2cccc(C(=O)N(C)C)c2)cc1OC` [Compound 310, 3,5-dichloro-4-((S)-2-(3,4-dimethoxyphenyl)-2-((S)-1-(3-(dimethylcarbamoyl)phenylsulfonyl)pyrrolidine-2-carbonyloxy)ethyl)pyridine 1-oxide] the figure was below 0.1 nM; with `COC(=O)c1ccccc1S(=O)(=O)N1CCS[C@H]1C(=O)O[C@@H](Cc1c(Cl)c[n+]([O-])cc1Cl)c1ccc(OC(F)F)c(OCC2CC2)c1` [Compound 101, 3,5-dichloro-4-((S)-2-(3-(cyclopropylmethoxy)-4-(difluoromethoxy)phenyl)-2-((S)-3-(2-(methoxycarbonyl)phenylsulfonyl)thiazolidine-2-carbonyloxy)ethyl)pyridine 1-oxide], below 0.1 nM; with `O=C1NC(=O)c2cc(S(=O)(=O)N3CCSC3C(=O)O[C@@H](Cc3c(Cl)c[n+]([O-])cc3Cl)c3ccc(OC(F)F)c(OCC4CC4)c3)ccc21` (stereo partly drawn) [Compound 58, 3,5-dichloro-4-((2S)-2-(3-(cyclopropylmethoxy)-4-(difluoromethoxy)phenyl)-2-(3-(1,3-dioxoisoindolin-5-ylsulfonyl)thiazolidine-2-carbonyloxy)ethyl)pyridine 1-oxide], 0.1 to 1 nM.

Broadly, the IC50 is the point on the concentration scale where inhibition reaches its midpoint.
